# According to patent US20240350494A1, “THERAPEUTIC MODULATION OF INTEGRINS” (Pliant Therapeutics, Inc., priority 2021, published 2024):
# Entries after “also recorded” stand apart in the source; their conditions may differ.
# Legend:
# [1] = Phase 2a trial in IPF, safety and tolerability; type: in vivo, human
# lung collagen = assay: Murine bleomycin model, collagen deposition; type: in vivo, mice (C57BL/6); details: bleomycin mice
# Procedure: (§1) Mice (C57BL/6) were divided into healthy (n=15), vehicle-treated (n=15), and test article-treated (n=15 per dose) groups. Mice in the vehicle and test article-treated groups were administered 3 U/kg of bleomycin (Teva Pharmaceuticals; North Wales, PA) via oropharyngeal aspiration while under anesthesia on day 0. Healthy animals were administered water in a similar fashion. Starting on day 7, mice in the control group were administered PBS vehicle, 130 μL, by oral gavage, BID for 14 days. Also starting on day 7, mice in the test group were administered compound 5 in PBS by oral gavage, BID for 14 days, at relative dosages of 1×, 2.5× and 5×. […] From day 14 through day 21, 9 of the 15 mice were administered ^2H2O for labeling. All mice were sacrificed on day 21 and tissues were collected. Samples were prepared for analysis either directly from lung tissue, or by bronchoalveolar lavage, which washes out the bronchiolar and alveolar space with saline to produce a bronchoalveolar lavage fluid (BALF) in which 80-90% of cells are alveolar macrophages.
# FIGS. 2F, 2G, and 2H show high resolution second harmonic generation images of fibrillar collagen (collagen type I and III) taken from formalin-fixed paraffin embedded lung tissue sections from a healthy mouse lung (2F), a vehicle-treated mouse lung (2G) and a test-article treated mouse lung (2H; 500 mg/kg BID). Color scale is indicative of collagen fiber density (red=most dense; blue=least dense).
# FIG. 2I is a graph showing the percent total collagen area in the second harmonic generation mouse lung images. Large structural areas of collagen found similarly in healthy and fibrotic tissues (dense collagen fibers surrounding airways were excluded from this analysis to focus on interstitial fibrotic collagen). […] The 1×, 2.5×, and 5× dosages were at the same absolute values in mg/kg as in Example B2.
# SMAD3 phosphorylation [2] = assay: pSMAD3/SMAD3 in lung tissue and BALF of healthy mice; type: in vivo; details: 4 days of treatment, dose dependent
# Excerpt: (§2) It has been previously shown that inhibition of αVβ6 in the lung can be detected though measurement of phospho-SMAD (pSMAD) in alveolar macrophages. Alveolar macrophages are known to operate in a unique niche in the lung, distinct from interstitial macrophages. SMAD3 is a downstream target of the active TGF-β cytokine binding its receptor and in alveolar macrophages it is phosphorylated by homoeostatic levels of TGF-β. Accordingly, it was desirable to know whether inhibition of TGF-β activation using the disclosed compounds would result in reduced SMAD2 and SMAD3 phosphorylation.
# FIG. 2A is a graph of PSMAD3/SMAD3 in lung tissue from healthy mice administered PBS vehicle and varying levels of compound 5 for 4 days. FIG. 2B is a graph of PSMAD3/SMAD3 in BALF drawn from the same healthy mice administered PBS vehicle and varying levels of compound 5 for 4 days.
# [3] = tested on: Human bronchial epithelial cells; assay: LAP adhesion assay, normal human bronchial epithelial cells (express αVβ6); type: cell-based; details: cell index (electrical impedance), xCELLigence; FIG. 1A
# Procedure: Two latency associated peptide (LAP) adhesion binding assays were devised using primary human lung cells, including normal (healthy) human bronchial epithelial cells and human lung fibroblasts (healthy and IPF).
# Human bronchial epithelial cells are known to express αVβ6 integrin in culture. Human bronchial epithelial cells were prepared for the assay by dissociation with trypsin/EDTA and were then seeded at 20,000 cells per well on 96 well plates (ACEA Bioscience E-plate View, Acea Biosciences; San Diego, CA) previously coated with 5 μg/ml of recombinant human LAP (R&D Systems; Minneapolis, MN) and blocked with 4% bovine serum albumin. Cell index (electrical impedance) was measured to assess cell attachment/spreading every 3 minutes for 24 hours at 37° C./5% CO2 using the xCELLigence RTCA MP Instrument (Acea Biosciences; San Diego, CA).
# pSMAD2:SMAD2 ratio = pSMAD2:SMAD2 ratio in BAL of healthy subjects (20 or 40 mg daily); type: in vivo, human; details: all subjects with Cmax above 700 ng/mL; Day 7; FIG. 6G
# Procedure: In order to evaluate the change of pSMAD2 as a biomarker of TGF-β activity following administration of an integrin inhibitor, and to determine a therapeutically effective dosage and an effective blood plasma Cmax of the integrin inhibitor, healthy subjects were administered compound 5, a dual selective αVβ6/αVβ1-integrin inhibitor, and the corresponding Cmax levels and decrease in phosphorylation levels and were determined.
# Healthy non-smoking adult males without history of lung disease were selected as subjects and were randomized into 4 cohorts. Broncoalevaolar lavage samples were obtained from all subjects 1 day prior to start of treatment. Cohorts 1 and 2 were administered 20 mg of a compound daily, wherein 3 subjects were administered the dual selective αVβ6/αVβ1-integrin inhibitor (compound 5) per every 1 subject receiving a placebo compound. Cohorts 3 and 4 were administered 40 mg of a compound daily, wherein 3 subjects were administered the dual selective αVβ6/αVβ1-integrin inhibitor (compound 5) per every 1 subject receiving a placebo compound. BAL samples and blood samples were taken from all subjects on Day −1 (baseline) and on Day 7 (end of treatment).
# pSmad2/Smad2 = assay: Alveolar pSmad2/Smad2 in BAL, 80 mg and 160 mg QD (FIG. 10); type: in vivo, human; details: 80 mg and 160 mg QD (Part 1), p<0.0001
# Procedure: Alveolar pSmad2/Smad2 percentage change from baseline at 24 h (Part 1: 80 mg and 160 mg). […] BAL—bronchoalveolar lavage; pSmad2/Smad2—ratio of phosphorylated Smad2 to total Smad2; QD—once daily.
# [4] = tested on: forced vital capacity (FVC); assay: Phase 2a trial in IPF, forced vital capacity; type: in vivo, human
# Excerpt: The exploratory endpoints of the trial measured changes in forced vital capacity (FVC), HRCT-based Quantitative Lung Fibrosis score (QLF), and selected biomarkers over 3 months of treatment.
# FIG. 19 illustrates the change in FVC (forced vital capacity) from baseline to Week 12, MMRM Analysis—ITT Population. Change from baseline analyzed using a mixed model for repeated measures with terms for treatment group, SOC (Y/N), visit, baseline value, and treatment-by-visit interaction. An unstructured covariance (UN) structure was used.
# SMAD3 phosphorylation [5] = assay: Murine bleomycin model, SMAD3 phosphorylation; type: in vivo, mice (C57BL/6); details: bleomycin day 0, oral gavage BID 14 days from day 7 at 1×, 5×, FIG. 2C
# Excerpt: as §2
# as §1, with “Samples were prepared for analysis either directly from lung tissue, or by bronchoalveolar lavage, which washes out the bronchiolar and alveolar space with saline to produce a bronchoalveolar lavage fluid (BALF) in which 80-90% of cells are alveolar macrophages.” left out
# [6] = of the 67 patients treated with Compound 5
smiles,measurement,setting,value
"COCCN(CCCCc1ccc2c(n1)NCCC2)CC[C@H](Nc1ncnc2ccccc12)C(=O)O [Compound 5, (S)-4-((2-methoxyethyl)(4-(5,6,7,8-tetrahydro-1,8-naphthyridin-2-yl)butyl)amino)-2-(quinazolin-4-ylamino)butanoic acid]",discontinuations due to adverse events,"[1]; 12 weeks, 40-160 mg QD",no discontinuations due to adverse events; also recorded: No premature discontinuations due to AEs; also recorded: no participants discontinued Compound 5 due to TEAE
same,most frequent TEAE,"[1]; 12 weeks, 40-160 mg QD",diarrhea but only seen in patients on standard of care
same,severity of most treatment emergent adverse events (TEAE),"[1]; 12 weeks, 40-160 mg QD",mild or moderate in severity
same,treatment related deaths or drug related serious adverse events (SAE),"[1]; 12 weeks, 40-160 mg QD",No treatment related deaths or drug related serious adverse events (SAE) were reported; also recorded: No deaths or drug-related SAEs; also recorded: no treatment-emergent serious adverse events (SAEs) were observed; also recorded: no treatment related SAEs or deaths
same,tolerability,"[1]; IPF patients, 40, 80, 160 mg once daily, 12 weeks",safe and well tolerated
same,"patients who completed 12 weeks of treatment, number",[1]; [6],65
same,"patients who completed 12 weeks of treatment, proportion",[1]; [6],97%
same,accumulated new collagen (percentage of lung collagen containing 2H-labeled hydroxyproline),"lung collagen; 1× and 5× BID, FIG. 2D",dose-dependent reduction
same,total pulmonary collagen (μg of hydroxyproline),"lung collagen; 1×, […], 5× BID, FIG. 2E",reduction in total pulmonary collagen
same,total collagen area in second harmonic generation images,"lung collagen; 1×, […], 5× BID, FIG. 2I","substantial, statistically significant dose-dependent reduction"
same,SMAD3 phosphorylation (PSMAD3/SMAD3) in lung tissue,SMAD3 phosphorylation [2]; FIG. 2A,approximately 50 % of the untreated levels
same,SMAD3 phosphorylation (PSMAD3/SMAD3) in cells isolated from BALF,SMAD3 phosphorylation [2]; FIG. 2B,approximately 50 % of the untreated levels
same,inhibition of normal bronchial epithelial cell adhesion to LAP,[3],substantially inhibited
same,reduction in pSMAD2:SMAD2 ratio in BAL compared to the placebo group,pSMAD2:SMAD2 ratio,≥ 50%
same,Alveolar pSmad2/Smad2 percentage change from baseline at 24 h vs. placebo,pSmad2/Smad2,statistically significant at both doses
same,increase in FVC relative to baseline,"[4]; 80 mg QD, 12 weeks",+24.6 mL
same,treatment effect on FVC versus placebo at 12 weeks,"[4]; 40, 80, 160 mg QD",dose-dependent treatment effect
same,"proportion of patients experiencing a FVCpp decline of ≥10%, dose dependence","[4]; 40, 80, 160 mg QD, 12 weeks",Dose-dependent reduction; also recorded: dose-dependent decrease; also recorded: Dose dependent reduction
same,treatment effect with and without standard of care therapy,"[4]; all Compound 5 dose groups, SoC nintedanib or pirfenidone",A treatment effect was observed; also recorded: evident with and without use of standard-of-care agents
same,SMAD3 phosphorylation in lung tissue compared to vehicle-treated mice,SMAD3 phosphorylation [5],"substantial, statistically significant dose-dependent reductions"
